# Measured values as given in patent US9510598B2, “Nitrogen-containing heterocyclic compounds for plant disease control” (BAYER CROPSCIENCE AG, priority 2012, dated 2016).
# Like-named read-outs stand apart in the source and are kept apart here.
# Assays:
# Botrytis cinerea = experiment: In vivo preventive test on Botrytis cinerea (grey mould); details: 500 ppm; gherkin plants sprayed 24 hours before contamination; grading 4-5 days after contamination vs control plants
# Procedure: Gherkin plants (“Vert petit de Paris” variety), sown in starter cups on a 50/50 peat soil-pozzolana substrate and grown at 24° C., are treated at the Z11 cotyledon stage by spraying with the active ingredient prepared as described above. Plants, used as controls, are treated with the mixture of acetone/tween/DMSO/water not containing the active material. After 24 hours, the plants are contaminated by spraying the cotyledons with an aqueous suspension of cryopreserved Botrytis cinerea spores (50 000 spores per ml). The spores are suspended in a nutrient solution composed of 10 g/L of PDB, 50 g/L of D-Fructose, 2 g/L of NH4NO3 and 1 g/L of KH2PO4. The contaminated gherkin plants are incubated at 17° C. and at 80% relative humidity. Grading (% of efficacy) is carried out 4-5 days after the contamination, in comparison with the control plants.
# Septoria tritici = experiment: In vivo preventive test on Septoria tritici (leaf spot on wheat); details: 500 ppm; wheat plants sprayed 24 hours before contamination; grading 21 to 28 days after contamination vs control plants
# Procedure, shortened: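 Scipion wheat at 1-leaf stage sprayed with compound, controls receiving acetone/tween/DMSO/water vehicle; 24 h later leaves inoculated with Septoria tritici spores (500 000 spores per ml). Efficacy (%) graded versus control plants 21 to 28 days after contamination.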
# [1] = format: physicochemical; details: for Log P: method [a]: HPLC/LC-MS on reversed phase at pH 2.7, 0.1% formic acid in water and acetonitrile
# Sphaerotheca fuliginea = experiment: In vivo preventive test on Sphaerotheca fuliginea (powdery mildew on cucurbits); details: 500 ppm; gherkin plants sprayed 24 hours before contamination; grading 12 days after contamination vs control plants
# Procedure: Gherkin plants (“Vert petit de Paris” variety), sown in starter cups on a 50/50 peat soil-pozzolana substrate and grown at 24° C., are treated at the Z11 cotyledon stage by spraying with the active ingredient prepared as described above. Plants, used as controls, are treated with the mixture of acetone/tween/DMSO/water not containing the active material. After 24 hours, the plants are contaminated by spraying the cotyledons with an aqueous suspension of Sphaerotheca fuliginea spores (100 000 spores per ml). The spores are collected from infected plants. […] Grading (% of efficacy) is carried out 12 days after the contamination, in comparison with the control plants.
# [2] = method [a]: HPLC/LC-MS on reversed phase at pH 2.7, 0.1% formic acid in water / acetonitrile, linear gradient 10% to 95% acetonitrile
# [3] = HPLC on reversed phase columns, method [a]: pH 2.7, 0.1% formic acid in water / acetonitrile, linear gradient 10% to 95% acetonitrile
# [4] = method [a]: HPLC/LC-MS on reversed phase at pH 2.7, 0.1% formic acid in water / acetonitrile, gradient 10% to 95% acetonitrile
# [5] = linear gradient 10% to 95% acetonitrile
SMILES,"log P [1, 2]","log P [1, 3]",% of efficacy (protection) (Botrytis cinerea),% of efficacy (protection) (Septoria tritici),further results
C#Cc1cnc2ccc(C3=NOC(C)(C(=O)NCc4cnn(-c5ccccc5)c4)C3)cc2c1 (stereo not drawn) [compound 186],2.78^[a],–,92%,71%,–
C#Cc1cnc2ccc(C3=NOC(C)(C(=O)NCC4(C)CCCO4)C3)cc2c1 (stereo not drawn) [compound 128],2.42^[a],–,98%,83%,–
CC1(C(=O)NCC(F)(F)F)CC(c2ccc3ncc(Br)cc3c2)=NO1 (stereo not drawn) [compound 493],–,–,100%,97%,"log P [1, 4]: 2.84[a]"
CCOCCCNC(=O)C1(C)CC(c2cc(Cl)c3ncc(Br)cc3c2)=NO1 (stereo not drawn) [compound 542],–,3.25[a],100%,83%,–
CC1(C(=O)NC2CCC2)CC(c2cc(Cl)c3ncc(Br)cc3c2)=NO1 (stereo not drawn) [compound 539],–,3.48[a],100%,83%,–
CCOCCCNC(=O)C1(C)CC(c2cc3cc(Br)cnc3c(F)c2F)=NO1 (stereo not drawn) [compound 14],–,–,100%,–,"Log P [1, 5]: 2.98^[a]"
C#Cc1cnc2ccc(C3=NOC(C(=O)NCCCOCC)(C(F)F)C3)cc2c1 (stereo not drawn) [Compound No. 615],–,–,95%,79%,chromatographic logP ([1]; pH 2.7): 2.73
C#Cc1cnc2ccc(C3=NOC(C)(C(=O)NC4CCOCC4)C3)cc2c1 (stereo not drawn) [compound 502],–,–,98%,100%,"log P [1, 4]: 2.01[a]"
CC1COCCC1NC(=O)C1(C)CC(c2ccc3ncc(Br)cc3c2)=NO1 (mixture of isomers) [compound 309],–,–,–,86%,% of efficacy (protection) (Sphaerotheca fuliginea): 100%
C#Cc1cnc2ccc(C3=NOC(C)(C(=O)NCc4cc(Cl)cc(Cl)c4)C3)cc2c1 (stereo not drawn) [compound 193],3.71^[a],–,74%,–,–
CCCOc1cnc2ccc(C3=NOC(C)(C(=O)NCc4cn(CC)nc4C)C3)cc2c1 (stereo not drawn) [compound 418],–,–,79%,83%,"log P [1, 4]: 2.46[a]"
C#Cc1cnc2ccc(C3=NOC(C)(C(=O)NC(C)c4ccc(Cl)nc4)C3)cc2c1 (stereo not drawn) [compound 525],–,2.68[a],100%,93%,–
CCOCC(C)NC(=O)C1(C)CC(c2ccc3ncc(Br)cc3c2)=NO1 (mixture of isomers) [compound 374],–,–,–,100%,% of efficacy (protection) (Sphaerotheca fuliginea): 100%
C#Cc1cnc2ccc(C3=NOC(C)(C(=O)NC(C)CC(=O)OCC)C3)cc2c1 (mixture of isomers) [compound 453],–,–,–,–,"% of efficacy (protection) (Sphaerotheca fuliginea): 88%; log P [1, 4]: 2.57[a]"
CCOCCCNC(=O)C1(OC)CC(c2cc(C)c3ncc(Br)cc3c2)=NO1 (stereo not drawn) [compound 597],–,3.39[a],100%,100%,–
C#Cc1cnc2ccc(C3=NOC(C)(C(=S)NCc4cnc(C)cn4)C3)cc2c1 (stereo not drawn) [compound 481],–,–,97%,86%,"log P [1, 4]: 2.84[a]"
CCC(C)NC(=O)C1(C)CC(c2cc3cc(Br)cnc3c(F)c2F)=NO1 (stereo not drawn) [compound 22],–,–,93%,83%,"Log P [1, 5]: 3.31^[a]"
C#Cc1cnc2ccc(C3=NOC(C)(C(=O)NC4COC4)C3)cc2c1 (stereo not drawn) [compound 238],–,1.75^[a],82%,93%,–
CCOCCCNC(=O)C1(C(F)F)CC(c2ccc3ncc(I)cc3c2)=NO1 (stereo not drawn) [compound 619],–,3.19[a],73%,71%,–
C#Cc1cnc2ccc(C3=NOC(C)(C(=O)NCc4cccc(OC(F)(F)F)c4)C3)cc2c1 (stereo not drawn) [compound 190],3.48^[a],–,89%,71%,–
COC1(C(=S)NC(C)C)CC(c2ccc3ncc(Br)cc3c2)=NO1 (stereo not drawn) [compound 410],–,–,–,100%,"log P [1, 4]: 3.69[a]"
CCC1(C(=O)NC2CCC2)CC(c2ccc3ncc(Br)cc3c2)=NO1 (stereo not drawn) [compound 498],–,–,92%,71%,"log P [1, 4]: 3.31[a]"
CC(C)NC(=O)C1(C)CC(c2ccc3nc(Cl)c(Br)cc3c2)=NO1 (stereo not drawn) [compound 287],–,3.46[a],–,83%,–

# Second part, led by results:
"log P [1, 2]","log P [1, 3]",SMILES,% of efficacy (protection) (Botrytis cinerea),% of efficacy (protection) (Septoria tritici),further results
3.11^[a],–,CC1(C(=O)NCc2cnn(-c3ccccc3)c2)CC(c2ccc3ncc(Br)cc3c2)=NO1 (stereo not drawn) [compound 202],87%,–,–
–,3.41[a],C=C(C)C1(C(=O)NC(C)C)CC(c2ccc3ncc(Br)cc3c2)=NO1 (stereo not drawn) [compound 517],80%,–,–
–,2.26[a],C#Cc1cnc2ccc(C3=NOC(C)(C(=O)Nc4cn(CC)nc4C)C3)cc2c1 (stereo not drawn) [compound 529],100%,100%,–
3.46^[a],–,CCOCCCNC(=O)C1(C(C)C)CC(c2ccc3ncc(Br)cc3c2)=NO1 (stereo not drawn) [compound 64],77%,70%,–
1.98^[a],–,C#Cc1cnc2ccc(C3=NOC(C)(C(=O)NCc4cnc(C)cn4)C3)cc2c1 (stereo not drawn) [compound 167],100%,100%,–
2.2^[a],–,CC1(C(=O)NCC2CCOC2)CC(c2ccc3ncc(Br)cc3c2)=NO1 (stereo not drawn) [compound 127],80%,–,–
3.23^[a],–,C#Cc1cnc2ccc(C3=NOC(C)(C(=O)NCc4ccccc4Cl)C3)cc2c1 (stereo not drawn) [compound 168],99%,71%,–
2.44^[a],–,CSc1cnc2ccc(C3=NOC(C)(C(=O)NC(C)C)C3)cc2c1 (stereo not drawn) [compound 80],–,–,% of efficacy (protection) (Sphaerotheca fuliginea): 93%
2.45^[a],–,CC1(C(=O)NCC2CCCO2)CC(c2ccc3ncc(Br)cc3c2)=NO1 (stereo not drawn) [compound 130],89%,–,–
–,2.73[a],CCn1cc(CNC(=O)C2(C3CC3)CC(c3ccc4ncc(Br)cc4c3)=NO2)c(C)n1 (stereo not drawn) [compound 268],93%,–,–
–,2.84[a],Cc1cnc(CNC(=O)C2(C)CC(c3cc(C)c4ncc(Br)cc4c3)=NO2)cn1 (stereo not drawn) [compound 537],100%,100%,–
–,3.25[a],CC(C)NC(=O)C1(C2CC2)CC(c2ccc3ncc(Br)cc3c2)=NO1 (stereo not drawn) [compound 267],85%,93%,–
2.43^[a],–,CCOc1cnc2ccc(C3=NOC(C)(C(=O)NC(C)C)C3)cc2c1 (stereo not drawn) [compound 78],74%,97%,–
–,2.75[a],C#Cc1cnc2ccc(C3=NOC(C)(C(=O)NC(C)(C#N)C4CC4)C3)cc2c1 (stereo not drawn) [compound 523],73%,97%,–
2.73^[a],–,CC1(CNC(=O)C2(C)CC(c3ccc4ncc(Br)cc4c3)=NO2)CCCO1 (stereo not drawn) [compound 131],92%,83%,–
2.75^[a],–,CCC1(C(=O)NC2CC2)CC(c2ccc3ncc(Br)cc3c2)=NO1 (stereo not drawn) [compound 69],99%,97%,–
2.09^[a],–,CCn1cc(CNC(=O)C2(C)CC(c3ccc4ncc(SC)cc4c3)=NO2)c(C)n1 (stereo not drawn) [compound 147],88%,–,–
–,2.39[a],CCNC(=O)C1(C)CC(c2ccc3ncc(Br)cc3c2)=NO1 (stereo not drawn) [compound 528],99%,97%,–
–,2.81[a],CCSc1cnc2ccc(C3=NOC(C)(C(=O)NC(C)C)C3)cc2c1 (stereo not drawn) [compound 277],–,–,% of efficacy (protection) (Sphaerotheca fuliginea): 71%
3.8^[a],–,CCOCCCNC(=O)C1(Cc2ccccc2)CC(c2ccc3ncc(Br)cc3c2)=NO1 (stereo not drawn) [compound 59],–,70%,–
2.51^[a],–,CC1(C(=O)NCc2cn[nH]c2-c2cccs2)CC(c2ccc3ncc(Br)cc3c2)=NO1 (stereo not drawn) [compound 191],–,71%,–
–,2.52[a],C#CCCNC(=O)C1(C)CC(c2ccc3ncc(Br)cc3c2)=NO1 (stereo not drawn) [compound 353],–,94%,–
